Assay results from ChEMBL document CHEMBL3885881, “DrugMatrix”.

Species on record: Rattus norvegicus
Experiment: DrugMatrix - Regimen: Daily Repeat
Assay type: toxicity, organism-based, Sprague-Dawley
Set-up: regimen Daily Repeat, gender Male, age 6-8 weeks
Details: in vivo, po, route oral GAVAGE, […]; for ABSOLUTE BASOPHIL / ABSOLUTE EOSINOPHIL / ABSOLUTE LYMPHOCYTE / ABSOLUTE MONOCYTE / ABSOLUTE SEGMENTED NEUTROPHIL / BASOPHIL / EOSINOPHIL / ERYTHROCYTE COUNT / HEMATOCRIT / HEMOGLOBIN / LEUKOCYTE COUNT / LYMPHOCYTE / MEAN CORPUSCULAR HEMOGLOBIN / MEAN CORPUSCULAR HEMOGLOBIN CONCENTRATION / MEAN CORPUSCULAR VOLUME / MONOCYTE / NEUTROPHIL / NUCLEATED RED BLOOD CELLS / PLATELET COUNT: tissue Blood; for ALANINE AMINOTRANSFERASE / ALBUMIN / ALKALINE PHOSPHATASE / ASPARTATE AMINOTRANSFERASE / BLOOD UREA NITROGEN / CARBON DIOXIDE / CHLORIDE / CHOLESTEROL / CREATINE PHOSPHOKINASE / CREATININE / GLUCOSE / LACTATE DEHYDROGENASE / LIPASE / PHOSPHORUS / POTASSIUM / SODIUM / TOTAL BILIRUBIN / TOTAL PROTEIN / URIC ACID: tissue Plasma
[1] = 24 mg/kg, 72 h, dose level Low, time 3 day
[2] = 24 mg/kg, 120 h, dose level Low, time 5 day
[3] = 93 mg/kg, 72 h, dose level High, time 3 day
[4] = 93 mg/kg, 120 h, dose level High, time 5 day

In the case of `Cc1cccc(Nc2ccccc2C(=O)O)c1C` [MEFENAMIC ACID], the “ABSOLUTE BASOPHIL” value [1] was 0 CELLS/uL, the “ABSOLUTE EOSINOPHIL” value [1] was 120.67 CELLS/uL and the “ABSOLUTE LYMPHOCYTE” value [1] was 16868.33 CELLS/uL. The “ABSOLUTE MONOCYTE” value [1] was 133 CELLS/uL, the “ABSOLUTE SEGMENTED NEUTROPHIL” value [1] was 1478 CELLS/uL and the BASOPHIL [1] was 0%. The EOSINOPHIL [1] was 0.67%, the “ERYTHROCYTE COUNT” value [1] was 5.76 x10E6/uL and the HEMATOCRIT [1] was 38.77%. The HEMOGLOBIN [1] was 15.4 G/DL, the “LEUKOCYTE COUNT” value [1] was 18.6 x10E3/uL and the LYMPHOCYTE [1] was 90.67%. The “MEAN CORPUSCULAR HEMOGLOBIN” value [1] was 26.73 pg, the “MEAN CORPUSCULAR HEMOGLOBIN CONCENTRATION” value [1] was 39.73 G/DL and the “MEAN CORPUSCULAR VOLUME” value [1] was 67.37 fL. The MONOCYTE [1] was 0.67%, the NEUTROPHIL [1] was 8% and the “NUCLEATED RED BLOOD CELLS” value [1] was 0 /100WBC. For the same compound, the “PLATELET COUNT” value [1] was 1314.33 x10E3/uL, the “ALANINE AMINOTRANSFERASE” value [1] was 80.67 u/L and the ALBUMIN [1] was 4.33 G/DL. For the same compound, the “ALKALINE PHOSPHATASE” value [1] was 454.67 u/L, the “ASPARTATE AMINOTRANSFERASE” value [1] was 99.67 u/L and the “BLOOD UREA NITROGEN” value [1] was 12 mg/dL. The “CARBON DIOXIDE” value [1] was 32 mmol/L, the CHLORIDE [1] was 102.33 MEQ/L and the CHOLESTEROL [1] was 71 mg/dL. The “CREATINE PHOSPHOKINASE” value [1] was 725 u/L, the CREATININE [1] was 0.28 mg/dL and the GLUCOSE [1] was 165.67 mg/dL. For the same compound, the “LACTATE DEHYDROGENASE” value [1] was 174.67 u/L, the LIPASE [1] was 13 u/L and the PHOSPHORUS [1] was 13.37 mg/dL. The POTASSIUM [1] was 6.54 MEQ/L, the SODIUM [1] was 146.73 MEQ/L and the “TOTAL BILIRUBIN” value [1] was 0.2 mg/dL. For the same compound, the “TOTAL PROTEIN” value [1] was 6 G/DL, the “URIC ACID” value [1] was 1.83 mg/dL and the “ABSOLUTE BASOPHIL” value [2] was 0 CELLS/uL. The “ABSOLUTE EOSINOPHIL” value [2] was 0 CELLS/uL, the “ABSOLUTE LYMPHOCYTE” value [2] was 17204 CELLS/uL and the “ABSOLUTE MONOCYTE” value [2] was 113.33 CELLS/uL. For the same compound, the “ABSOLUTE SEGMENTED NEUTROPHIL” value [2] was 1482.67 CELLS/uL, the BASOPHIL [2] was 0% and the EOSINOPHIL [2] was 0%. The “ERYTHROCYTE COUNT” value [2] was 5.87 x10E6/uL, the HEMATOCRIT [2] was 36.9% and the HEMOGLOBIN [2] was 14.47 G/DL. The “LEUKOCYTE COUNT” value [2] was 18.8 x10E3/uL, the LYMPHOCYTE [2] was 91.33% and the “MEAN CORPUSCULAR HEMOGLOBIN” value [2] was 24.67 pg. The “MEAN CORPUSCULAR HEMOGLOBIN CONCENTRATION” value [2] was 39.23 G/DL, the “MEAN CORPUSCULAR VOLUME” value [2] was 62.87 fL and the MONOCYTE [2] was 0.67%. The NEUTROPHIL [2] was 8%, the “NUCLEATED RED BLOOD CELLS” value [2] was 0.33 /100WBC and the “PLATELET COUNT” value [2] was 1359 x10E3/uL. The “ALANINE AMINOTRANSFERASE” value [2] was 61.67 u/L, the ALBUMIN [2] was 4.17 G/DL and the “ALKALINE PHOSPHATASE” value [2] was 457.33 u/L. For the same compound, the “ASPARTATE AMINOTRANSFERASE” value [2] was 87.33 u/L, the “BLOOD UREA NITROGEN” value [2] was 13.33 mg/dL and the “CARBON DIOXIDE” value [2] was 31.33 mmol/L. The CHLORIDE [2] was 101.67 MEQ/L, the CHOLESTEROL [2] was 67.67 mg/dL and the “CREATINE PHOSPHOKINASE” value [2] was 379.33 u/L. The CREATININE [2] was 0.19 mg/dL, the GLUCOSE [2] was 144.67 mg/dL and the “LACTATE DEHYDROGENASE” value [2] was 449.33 u/L. The LIPASE [2] was 11.33 u/L, the PHOSPHORUS [2] was 11.87 mg/dL and the POTASSIUM [2] was 6.54 MEQ/L. For the same compound, the SODIUM [2] was 145.2 MEQ/L, the “TOTAL BILIRUBIN” value [2] was 0.2 mg/dL and the “TOTAL PROTEIN” value [2] was 5.97 G/DL. For the same compound, the “URIC ACID” value [2] was 1.43 mg/dL, the “ABSOLUTE BASOPHIL” value [3] was 0 CELLS/uL and the “ABSOLUTE EOSINOPHIL” value [3] was 46.33 CELLS/uL. For the same compound, the “ABSOLUTE LYMPHOCYTE” value [3] was 12604 CELLS/uL, the “ABSOLUTE MONOCYTE” value [3] was 348.67 CELLS/uL and the “ABSOLUTE SEGMENTED NEUTROPHIL” value [3] was 1701 CELLS/uL. The BASOPHIL [3] was 0%, the EOSINOPHIL [3] was 0.33% and the “ERYTHROCYTE COUNT” value [3] was 5.47 x10E6/uL. For the same compound, the HEMATOCRIT [3] was 35.43%, the HEMOGLOBIN [3] was 13.77 G/DL and the “LEUKOCYTE COUNT” value [3] was 14.7 x10E3/uL. For the same compound, the LYMPHOCYTE [3] was 85.67%, the “MEAN CORPUSCULAR HEMOGLOBIN” value [3] was 25.17 pg and the “MEAN CORPUSCULAR HEMOGLOBIN CONCENTRATION” value [3] was 38.9 G/DL. For the same compound, the “MEAN CORPUSCULAR VOLUME” value [3] was 64.77 fL, the MONOCYTE [3] was 2.33% and the NEUTROPHIL [3] was 11.67%. For the same compound, the “NUCLEATED RED BLOOD CELLS” value [3] was 0.33 /100WBC, the “PLATELET COUNT” value [3] was 1191.33 x10E3/uL and the “ALANINE AMINOTRANSFERASE” value [3] was 64.33 u/L. For the same compound, the ALBUMIN [3] was 3.93 G/DL, the “ALKALINE PHOSPHATASE” value [3] was 288.33 u/L and the “ASPARTATE AMINOTRANSFERASE” value [3] was 83 u/L. The “BLOOD UREA NITROGEN” value [3] was 11 mg/dL, the “CARBON DIOXIDE” value [3] was 34 mmol/L and the CHLORIDE [3] was 101.67 MEQ/L. The CHOLESTEROL [3] was 82 mg/dL, the “CREATINE PHOSPHOKINASE” value [3] was 546.33 u/L and the CREATININE [3] was 0.16 mg/dL. For the same compound, the GLUCOSE [3] was 149 mg/dL, the “LACTATE DEHYDROGENASE” value [3] was 123 u/L and the LIPASE [3] was 11 u/L. For the same compound, the PHOSPHORUS [3] was 12.4 mg/dL, the POTASSIUM [3] was 6.65 MEQ/L and the SODIUM [3] was 145.07 MEQ/L. For the same compound, the “TOTAL BILIRUBIN” value [3] was 0.17 mg/dL, the “TOTAL PROTEIN” value [3] was 5.63 G/DL and the “URIC ACID” value [3] was 1.57 mg/dL. The “ABSOLUTE BASOPHIL” value [4] was 0 CELLS/uL, the “ABSOLUTE EOSINOPHIL” value [4] was 0 CELLS/uL and the “ABSOLUTE LYMPHOCYTE” value [4] was 16873.67 CELLS/uL. The “ABSOLUTE MONOCYTE” value [4] was 0 CELLS/uL, the “ABSOLUTE SEGMENTED NEUTROPHIL” value [4] was 1459.67 CELLS/uL and the BASOPHIL [4] was 0%. For the same compound, the EOSINOPHIL [4] was 0%, the “ERYTHROCYTE COUNT” value [4] was 5.73 x10E6/uL and the HEMATOCRIT [4] was 35.9%. The HEMOGLOBIN [4] was 14.23 G/DL, the “LEUKOCYTE COUNT” value [4] was 18.33 x10E3/uL and the LYMPHOCYTE [4] was 92%. The “MEAN CORPUSCULAR HEMOGLOBIN” value [4] was 24.87 pg, the “MEAN CORPUSCULAR HEMOGLOBIN CONCENTRATION” value [4] was 39.63 G/DL and the “MEAN CORPUSCULAR VOLUME” value [4] was 62.73 fL. The MONOCYTE [4] was 0%, the NEUTROPHIL [4] was 8% and the “NUCLEATED RED BLOOD CELLS” value [4] was 0.33 /100WBC. For the same compound, the “PLATELET COUNT” value [4] was 1419 x10E3/uL, the “ALANINE AMINOTRANSFERASE” value [4] was 66.67 u/L and the ALBUMIN [4] was 4.3 G/DL. For the same compound, the “ALKALINE PHOSPHATASE” value [4] was 382.67 u/L, the “ASPARTATE AMINOTRANSFERASE” value [4] was 85 u/L and the “BLOOD UREA NITROGEN” value [4] was 11.67 mg/dL. The “CARBON DIOXIDE” value [4] was 31.67 mmol/L, the CHLORIDE [4] was 101.33 MEQ/L and the CHOLESTEROL [4] was 76.67 mg/dL. For the same compound, the “CREATINE PHOSPHOKINASE” value [4] was 196.33 u/L, the CREATININE [4] was 0.14 mg/dL and the GLUCOSE [4] was 143 mg/dL. The “LACTATE DEHYDROGENASE” value [4] was 166.33 u/L, the LIPASE [4] was 11.33 u/L and the PHOSPHORUS [4] was 12.5 mg/dL. The POTASSIUM [4] was 6.98 MEQ/L, the SODIUM [4] was 144.2 MEQ/L and the “TOTAL BILIRUBIN” value [4] was 0.17 mg/dL. The “TOTAL PROTEIN” value [4] was 6.23 G/DL and the “URIC ACID” value [4] was 2.33 mg/dL.
